What was measured:
3T3-L1 adipocytes [1] = assay: Oil Red O staining of 3T3-L1 adipocytes (adipocyte differentiation, total lipid content); assay type: cell-based, mouse; conditions: for oil red O staining (adipocyte differentiation): PCBs 20 μM during DMI treatment, 3T3-L1 adipocytes
Protocol: (§1) 3T3-L1 mouse embryo fibroblasts, purchased from American Type Culture Collection (Manassas, Va., USA), were maintained in standard Dulbecco's modified Eagle's medium (DMEM; Gibco-BRL, Gaithersburg, Md., USA) supplemented with 10% fetal calf serum (FCS; Gibco-BRL, Gaithersburg, Md., USA) and 1% penicillin/streptomycin at 37° C. in a humidified 5% CO2 atmosphere. After confluence, 3T3-L1 cells were induced to differentiate using DMI induction medium (DMEM containing 10% FBS, 0.5 mM 3-isobutyl-1-methylxanthine, 0.5 μM dexamethasone, and 1 μg/ml insulin) for 2 days, followed by DMII (DMEM containing 10% FBS and 1 μg/ml insulin) for 2 days. The medium was subsequently replaced with fresh culture medium (DMEM with 10% FBS) every 2 days for 4 days. To define the effects of PCBs on adipocyte differentiation, we incubated preadipocytes with PCBs (PCB-77, PCB-118, PCB-138 or PCB-153) at equivalent concentrations (20 μM) during DMI treatment.
(§2) For the siRNA-mediated down-regulation of Fsp27, Fsp27-specific siRNA and negative control siRNA were purchased from Bioneer (Daejeon, Korea) and used at a concentration of 20 nM. 3T3-L1 mouse embryo fibroblasts were transfected with either the siRNA molecule specific for Fsp27 or a negative control siRNA using Lipofectamine® RNAiMAX per the manufacturer's instructions.
As previously described (Kim et al. 2015), cells were washed twice in phosphate buffered saline (PBS) and fixed for 1 h with 10% (w/v) formaldehyde in PBS. After two washes in 60% isopropyl alcohol, the cells were stained for 30 min in freshly diluted Oil Red O solution. Then, the stain was removed, and the cells were washed 4 times in water. After adding 100% 2-propanol at 500 nm, the absorbance of the eluted Oil Red O was measured in a spectrophotometer.

Fsp27 and perilipin [2] = assay: Western blot of LD-associated proteins in 3T3-L1 adipocytes; assay type: cell-based, mouse; conditions: for protein expression levels of Fsp27 and perilipin: in vitro
Protocol: as §1
(§3) Cells and tissues were washed with ice-cold PBS, resuspended in 100 μL ice-cold RIPA buffer and incubated at 4° C. for 30 min. Lysates were centrifuged at 13,000 rpm for 30 min at 4° C. Equal amounts of proteins were subjected to 7.5-15% sodium dodecyl sulfate polyacrylamide gel electrophoresis. The proteins were transferred to a nitrocellulose membrane and reacted with each antibody. Immunostaining with antibodies was performed using the Super Signal West Pico (Thermo Scientific, Hudson, N.H., USA) enhanced chemiluminescence substrate and detected with LAS-3000 Plus (Fuji Photo Film, Tokyo, Japan). Quantification and normalization to actin or GAPDH control bands were performed using ImageJ 1.48q (NIH imaging software, Bethesda, Md., USA).

[3] = system: p-Akt (Ser473) and p-PI3K p85 (Tyr458); assay: Western blot of insulin-induced p-Akt and p-PI3K p85 in 3T3-L1 adipocytes; assay type: cell-based, mouse; conditions: for insulin-induced upregulation of p-Akt (Ser473) and p-PI3K p85 (Tyr458): 3T3-L1 adipocytes
Protocol: as §1, §3

aP2, PPAR and C/EBP = assay: mRNA and protein levels of adipocyte differentiation markers in vitro; assay type: cell-based, mouse
Protocol: as §1, with “To define the effects of PCBs on adipocyte differentiation, we incubated preadipocytes with PCBs (PCB-77, PCB-118, PCB-138 or PCB-153) at equivalent concentrations (20 μM) during DMI treatment.” left out
as §3, with “Lysates were centrifuged at 13,000 rpm for 30 min at 4° C. Equal amounts of proteins were subjected to 7.5-15% sodium dodecyl sulfate polyacrylamide gel electrophoresis. The proteins were transferred to a nitrocellulose membrane and reacted with each antibody.” left out

3T3-L1 adipocytes [4] = assay: Lipid droplet (LD) morphology and size in 3T3-L1 adipocytes (phase contrast, confocal microscopy); assay type: cell-based, mouse; conditions: for large LD formation: 3T3-L1 adipocytes treated with PCBs
Protocol: as §1, §2

C57BL/6 mice [5] = assay: PCB exposure of C57BL/6 mice: adipose mass, adipocyte size, body and liver weight; assay type: in vivo, mouse; conditions: 37.5 mg/kg ip, three injections, 6-week study
Protocol: (§4) Adult male C57BL/6 mice (8-week-old, 22-25 g) were purchased from SamTako Bio-Korea (Osan, Korea). The animals were maintained in a temperature-controlled room (22° C.) on a 12:12-h light-dark cycle. All procedures were approved by the Committee on Animal Investigations at Dong-A University. 12-week-old mice were administered vehicle (corn oil), PCB-118 or PCB-138 (37.5 mg/kg) by intraperitoneal (ip) injection for a total of three injections (2, 3 and 5 weeks) during the 6-week study duration. Mice were randomly divided into 3 groups of 10 animals each.
Epididymal white adipose tissues (eWAT) were fixed in 10% neutral buffered formalin and embedded in paraffin. Four-micrometer sections were prepared and stained with hematoxylin and eosin. The morphology of the […] was photographed using an Aperio ScanScope (Aperio Technologies, Vista, Calif., USA).

Fsp27 and perilipin [6] = assay: Western blot of LD-associated proteins in PCB-administered mice; parameters: species or system mouse; conditions: in vivo
Protocol: as §4, §3

C57BL/6 mice [7] = assay: Blood glucose, plasma insulin, GTT and ITT in PCB-administered mice; assay type: in vivo, mouse; conditions: for blood glucose level / plasma insulin level: 37.5 mg/kg ip; for amount of hyperglycemia in GTT: glucose 1 mg/g ip after 16 h fast; for efficiency of insulin in ITT: insulin 0.75 U/kg ip after 16 h fast
Protocol: as §4
As previously described, intraperitoneal glucose tolerance tests (GTT) and insulin tolerance tests (ITT) were performed after the mice were fasted for 16 h. Plasma glucose concentrations were measured in tail blood using a GlucoDr Blood Glucose Test Strip (Hasuco, Seoul, South Korea) prior to and 30, 60, 90 and 120 minutes after intraperitoneally injecting a bolus of glucose (1 mg/g) for the GTT, and at the same time-points after intraperitoneally injecting 0.75 U/kg body weight insulin for the ITT.

adipocytes = assay: Accumulation of PCBs in adipocytes; assay type: cell-based
IRS1 = IRS1 protein and mRNA level in 3T3-L1 adipocytes; assay type: cell-based, mouse; conditions: correlated with reversal of Fsp27 upregulation, Western blot
Protocol: as §1, with “To define the effects of PCBs on adipocyte differentiation, we incubated preadipocytes with PCBs (PCB-77, PCB-118, PCB-138 or PCB-153) at equivalent concentrations (20 μM) during DMI treatment.” left out
as §3, with “Lysates were centrifuged at 13,000 rpm for 30 min at 4° C. Equal amounts of proteins were subjected to 7.5-15% sodium dodecyl sulfate polyacrylamide gel electrophoresis. The proteins were transferred to a nitrocellulose membrane and reacted with each antibody.” left out

SMILES	protein expression levels of Fsp27 and perilipin (Fsp27 and perilipin [2]; 3T3-L1 adipocytes)	insulin-induced upregulation of p-Akt (Ser473) and p-PI3K p85 (Tyr458) [3]	mRNA and protein levels of aP2, PPAR and C/EBP (markers of adipocyte differentiation) (aP2, PPAR and C/EBP)	oil red O staining (adipocyte differentiation) (3T3-L1 adipocytes [1])	large LD formation (3T3-L1 adipocytes [4])	adipocyte size (eWAT) (C57BL/6 mice [5])	adipose mass (C57BL/6 mice [5])	body weight (C57BL/6 mice [5])	liver weight (C57BL/6 mice [5])	protein expression levels of Fsp27 and perilipin (Fsp27 and perilipin [6])	blood glucose level (C57BL/6 mice [7])	plasma insulin level (C57BL/6 mice [7])	amount of hyperglycemia in GTT (C57BL/6 mice [7])	efficiency of insulin in ITT (C57BL/6 mice [7])	also measured
Clc1ccc(-c2ccc(Cl)c(Cl)c2)cc1Cl [PCB-77, 3,3′,4,4′-tetrachlorobiphenyl]															effect on the adipocyte differentiation (3T3-L1 adipocytes [1]; compared to PCB-118 and PCB-138, 20 μM): meager effect
Clc1ccc(-c2cc(Cl)c(Cl)cc2Cl)cc1Cl [PCB-118, 2,3′,4,4′,5-pentachlorobiphenyl]	increased	impaired	increased	significantly increased	promote large LD formation	increased	increased	without affecting	without affecting	increased	increased	increased	increased	reduced	
Clc1cc(Cl)c(-c2ccc(Cl)c(Cl)c2Cl)cc1Cl [PCB-138, 2,2′,3,4,4′,5′-Hexachlorobiphenyl]	increased	impaired	increased	significantly increased	promote large LD formation	increased	increased	without affecting	without affecting	increased	increased	increased	increased	reduced	
CN(C)C(=N)N=C(N)N [metformin, reference compound]															accumulation of PCB-118 and PCB-138 in adipocytes (adipocytes): reverted; expression level of Fsp27 (Fsp27 and perilipin [2]; 3T3-L1 adipocytes, Western blot): reduced; PCB-induced upregulation of Fsp27 expression (Fsp27 and perilipin [2]; PCB-treated 3T3-L1 adipocytes, Western blot): reversed; IRS1 downregulation in adipocytes exposed to PCBs (IRS1): reversal; impairment by PCBs of the insulin-induced upregulation of p-Akt (Ser473) and p-PI3K p85 (Tyr458) ([3]; PCB-treated 3T3-L1 adipocytes): reversed; PCB-induced LD enlargement (3T3-L1 adipocytes [4]; PCB-treated 3T3-L1 adipocytes, phase contrast microscopy): reversed

Reference: patent publication US9994848B2, “Pharmaceutical composition for preventing and teating endocrine disrupting chemicals-induced diseases and treating method using the same” (priority 2016, dated 2018)
